Reference: patent publication US6844336B2, “4-fluoroalkyl-2h-benzopyrans with anti-estogenic activity” (Schering AG, priority 2000, dated 2005)

Test system: density of the trabecular bone in the proximal tibia of ovariectomized rats
Assay: Bone studies in ovariectomized rats (bone density of proximal tibia by pQCT)
Set-up: species or system rat
Settings: three-month-old ovariectomized female rats, once daily for 28 days, 0.1 mg/kg/animal/day p.o., pQCT ex vivo
Protocol: Three-month-old female rats are ovariectomized and treated once daily with the test compound immediately after the operation for 28 days. The administration is carried out subcutaneously in arachis oil/ethanol or it is carried out perorally. The animals are sacrificed on the day after the last administration, and tibiae as well as uteri are removed. The uteri are weighed, fixed and worked up for histological studies. The determination of the bone density is carried out ex vivo on prepared long bones using pQCT (quantitative computer tomography). The measurements are performed at a distance of 4-6 mm from the ball of the joint of the proximal tibia.
By the ovariectomy, the density of the trabecular bone in the measured area is reduced by about 400 mg of Ca^2+/cm^3 to about 300 mg of Ca^2+/cm^3. By the treatment with a compound of general formula I according to this invention (dosage of 0.1 mg/kg/animal/day p.o.), the degradation of the bone density in the proximal tibia is prevented or inhibited.

In the case of `Oc1ccc(C2=C(C(F)(F)F)c3ccc(O)cc3OC2c2ccc(OCCN3CCCCC3)cc2)cc1` (single isomer, unassigned; (+)) [Example 1, (+)-7-Hydroxy-3-(4-hydroxyphenyl)-2-[4-(2-piperidin-1-ylethoxy)-penyl]-4(trifluoromethyl)-2H-1-benzopyran], the “bone protection in comparison to the control that was subjected to a sham operation” value is reported as 73%.
